Source: patent publication US20210230616A1, “METHODS FOR ISOLATING CELLS WITHOUT THE USE OF TRANSGENIC MARKER SEQUENCES” (INSTITUTE OF GENETICS AND DEVELOPMENTAL BIOLOGY, CHINESE …, priority 2017, published 2021)

Key:
Assay type in all cases: in vivo
wild-type plants [1] = test: Nicosulfuron selection medium, wild-type rice plants; conditions: 0.0065 PPM Nicosulfuron
Procedure: The pH-nCas9-PBE-OsALS-S1/S2 binary vector was transformed into Agrobacterium strain AGL1 by electroporation. Agrobacterium-mediated transformation, tissue culture and regeneration in rice cultivar Zhonghua 11 were performed according to Shan et al. (Shan, Q. et al. Targeted genome modification of crop plants using a CRISPR-Cas system. Nat. Biotechnol. 31, 686-688 (2013)). Hygromycin selection (50 μg/ml) was used during tissue culture. (This experiment is a proof of concept, so the plants were selected with hygromycin first, then by nicosulfuron. The objective was to first obtain transgenic plants and then screen for herbicide resistance). […] Four seedlings survived after 14 days. DNA was extracted from the four seedlings. The ALS gene was amplified by PCR, sequenced to determine the mutant genotype.

wild-type plants [2] = test: Nicosulfuron selection medium, wild-type wheat plants
Source text: 30 days later, twelve seedlings survived, and 9 of them had base mutations at the TaALS-S2 site. The efficiency of selecting the ALS-S2 site mutant plants using nicosulfuron selection medium was 75% (9/12).

[3] = system: mutant plant with heterozygous P165L substitution on ZmALS2; test: Herbicide resistance of ZmALS-P165 edited corn plant
Source text: To establish the co-editing system in corn, acetolactate synthase site corresponding TaALS-P173 was targeted to test the herbicide resistance. It has been reported single edited allele on ZmALS2 could confer plants herbicide resistance (Svitashev et al, 2016). So the binary vector targeting ZmALS-P165 was transformed to immature embryos (ZmALS-P165 site is conserved in both ZmALS1 and ZmALS2). Three independent mutants were obtained from the regenerated plants and their genotypes are same.

COc1cc(OC)nc(NC(=O)NS(=O)(=O)c2ncccc2C(=O)N(C)C)n1 [Nicosulfuron]
survival of wild-type plants on selection medium (wild-type plants [1]): cannot survive | survival of wild-type plants on selection medium (wild-type plants [2]): unable to survive

COC(=O)c1ccc(CNS(C)(=O)=O)cc1S(=O)(=O)NC(=O)Nc1nc(OC)cc(OC)n1 [Mesosulfuron-methyl]
resistance of mutant corn plant to the herbicide [3]: showed resistance
